Values after ≈ are worked out from the molar mass of the structure shown. Marks after values point to notes of the source that are not given here. Numbered stars: 1 amine (or outer) side, 2 acyl side, 3 side chain; on linkers, the order of the positions; unused ones are H or OH. Bridge positions count the residues as written; N and C are the ends. Square brackets hold non-standard residues; d marks the D form. Peptide text beside a SMILES is read from it. Glutaryl = O=C(CCCC(=O)[*:2])[*:1]; Orn = NCCC[C@H](N)C(=O)O
How the values were obtained:
S. aureus (ATCC 12600) = assay: Minimum microbicidal concentration (MMC99) assay; format: cell-based; details: for S. aureus MMC99 6 h / S. aureus MMC99 24 h / S. aureus MMC99 2 h: BHI diluted 1/100, 37 °C, median, n = 3; for S. aureus MMC99 2 h: lowest concentration killing 99% of inoculum, two-fold dilutions 100-1.6 μg/mL
Protocol: (§1) The microbicidal activity of the synthetic peptides was assessed against S. aureus (ATCC 12600; American Type Culture Collection, Manassas, VA, USA), Escherichia coli (CCUG 31246; Culture Collection, University of Gothenburg, Sweden), and Candida albicans (ATCC 64549/CCUG31028) using an MMC assay, as described previously by […] et al. (specific details in Supporting Information, pages 10, 11).[28] The assay was performed in BHI diluted 1/100 (BHI100). […] page 11: Table S5. Energy and structural ensembles of synthesized peptides. […] Energy -3887.06 -3620.88 -4968.42 -2163.76 -2646.75 Van der Waals solv. Energy 117.32 91.57 183.20 -88.88 -139.89 Mean RMSD* (Å), mean±SD […] Heavy atoms 1.87 ± 0.33 1.77 ± 0.50 0.98 ± 0.34 0.63 ±0.22 2.88 ±0.62 MMC99 activity including salt stability measurements Antimicrobial activity of L2 and L3 in the presence of NaCl. 1Table S6. Peptide MMC99 (μg/ml) sin NaCl S. aureus E.coli C. albicans (mM) 2[…] 0 50 25 25 85 - - - - - - >200 >200 >200 150 - - - - - - >200 >200 >200 3L 0 12.5 12.5 25 12,5 6.3 6.3 12.5 6.3 12.5 […] 150 >400 >400 (-)2 >400 >400 >400 >200 >200 >200 […] or 150 mM NaCl. L2 and L3 were serially diluted in twofold steps with a starting dilution of 200 μg/ml […] All sample dilutions were run in duplicates (L2) or triplicates (L3). 2 The growth of S. aureus at 24 h in BHI 100 with 85 or 150 mM NaCl was reduced. Minimum microbicidal concentration (MMC), killing 99% of the inoculum. All microorganisms were cultured in brain-heart infusion broth (BHI) overnight on a shaker at 37°C. The cultures were thereafter transferred to fresh BHI broth in volumes constituting 10% of total, and incubated for an additional 2 h to reach exponential growth phase. The bacterial cultures were washed once in BHI diluted 1/100 (BHI100), followed by resuspension in BHI100. The cell suspensions were diluted to a density of […] (bacteria) or 2x10^7 CFU/ml (yeast), as estimated by optical density measurement at 590 nm. […] Serum stability Figure S 133. […] A) peptide L2 B) peptide L3. C) peptide L3-K. D) peptide C3.

S. aureus = assay: microbe, parasite or virus in culture; format: cell-based; details: for S. aureus MIC: 16 h
[1] = tested on: Escherichia coli (CCUG 31246); assay: Minimum microbicidal concentration (MMC99) assay; format: cell-based, E. coli; details: BHI diluted 1/100, 37 °C, median, n = 3
Protocol: as §1

E. coli CCUG31246 = format: cell-based; details: CCUG31246, 16 h
Protocol: MICs were performed under the same growth conditions used for mode of action analysis following the guidelines issued by the Clinical Laboratory Standardization Institute (CLSI) with slight modifications. Serial two-fold dilutions of the peptides were prepared in 1:10 BHI in a sterile 96-well plate and subsequently inoculated with 5 × 10^5 CFU/mL of E. coli CCUG31246. […] The following MICs were obtained: C3: 512 μg/mL, L3: 64 μg/mL, and L3-K: 128 μg/mL. These concentrations were used for all mechanistic experiments. Polymyxin B was used as a positive control in all assays at a final concentration of 10 μg/mL.

C. albicans = assay: microbe, parasite or virus in culture; format: cell-based; details: for C. albicans MIC: 16 h
[2] = tested on: Candida albicans (ATCC 64549/CCUG31028); assay: Minimum microbicidal concentration (MMC99) assay; format: cell-based, C. albicans; details: BHI diluted 1/100, 37 °C, median, n = 3
Protocol: as §1

| SMILES | S. aureus MIC (S. aureus) | E. coli MIC (E. coli CCUG31246) | C. albicans MIC (C. albicans) | MIC (C. albicans; Candida albicans, highest concentration 512 μg/mL, median, n = 3) | MMC99 for S. aureus, decreasing over time (S. aureus (ATCC 12600); 2 h to 24 h) | S. aureus MMC99 6 h (S. aureus (ATCC 12600)) | S. aureus MMC99 24 h (S. aureus (ATCC 12600)) | S. aureus MMC99 2 h (S. aureus (ATCC 12600)) | MIC (S. aureus; Staphylococcus aureus, read-out: S. aureus MIC) | E. coli MMC99 2 h [1] | E. coli MMC99 6 h [1] | E. coli MMC99 24 h [1] | C. albicans MMC99 2 h [2] | C. albicans MMC99 6 h [2] | C. albicans MMC99 24 h [2] |
| --- | --- | --- | --- | --- | --- | --- | --- | --- | --- | --- | --- | --- | --- | --- | --- |
| CC(=O)O[C@H]1C[C@@]2(C)[C@@H](C[C@@H](O)[C@H]3[C@@]4(C)CC[C@@H](O)[C@@H](C)[C@@H]4CC[C@@]32C)/C1=C(\CCC=C(C)C)C(=O)O [fusidic acid, reference compound] | – | – | – | – | 25 to 1.6 μg/mL | 6.3 µg/mL | 1.6 µg/mL | 25 µg/mL | 0.09 µg/mL (≈ 0.174 µM) | – | – | – | – | – | – |
| CC(C)[C@H]1NC(=O)[C@@H](C)NC(=O)CCCC(=O)NCCCC[C@@H](C(N)=O)NC(=O)[C@@H](C(C)C)NC(=O)[C@@H](CC(=O)O)NC(=O)[C@H]([C@@H](C)O)NC(=O)[C@@H](CC(=O)O)NC(=O)[C@H](Cc2c[nH]c3ccccc23)NC(=O)[C@@H](C)NC1=O [C1] ([dA][dV][dA]W[dD]T[dD][dV]K-NH2; linker N-9 via Glutaryl) | >512 µg/mL | >512 µg/mL | >512 µg/mL | – | – | >100 µg/mL | >100 µg/mL | >100 µg/mL | – | >100 µg/mL | >100 µg/mL | >100 µg/mL | >100 µg/mL | >100 µg/mL | >100 µg/mL |
| Clc1ccccc1C(c1ccccc1)(c1ccccc1)n1ccnc1 [clotrimazole, reference compound] | – | – | – | 4 µg/mL (≈ 11.6 µM) | – | – | – | – | – | – | – | – | >100 ^d μg/mL | >100 ^d μg/mL | >100 ^d μg/mL |

More lines, main results first:

| S. aureus MIC (S. aureus) | E. coli MIC (E. coli CCUG31246) | C. albicans MIC (C. albicans) | MIC (C. albicans; Candida albicans, highest concentration 512 μg/mL, median, n = 3) | SMILES | MMC99 for S. aureus, decreasing over time (S. aureus (ATCC 12600); 2 h to 24 h) | S. aureus MMC99 6 h (S. aureus (ATCC 12600)) | S. aureus MMC99 24 h (S. aureus (ATCC 12600)) | S. aureus MMC99 2 h (S. aureus (ATCC 12600)) | MIC (S. aureus; Staphylococcus aureus, read-out: S. aureus MIC) | E. coli MMC99 2 h [1] | E. coli MMC99 6 h [1] | E. coli MMC99 24 h [1] | C. albicans MMC99 2 h [2] | C. albicans MMC99 6 h [2] | C. albicans MMC99 24 h [2] |
| --- | --- | --- | --- | --- | --- | --- | --- | --- | --- | --- | --- | --- | --- | --- | --- |
| >512 µg/mL | >512 µg/mL | >512 µg/mL | – | CC(C)[C@H]1NC(=O)[C@H](CCCN)NC(=O)[C@H]([C@@H](C)O)NC(=O)[C@H](CCCN)NC(=O)[C@H](Cc2c[nH]c3ccccc23)NC(=O)[C@@H](C)NC(=O)[C@@H](C(C)C)NC(=O)[C@@H](C)NC(=O)CCCC(=O)NCCCC[C@@H](C(N)=O)NC1=O [C2] ([dA][dV][dA]W[Orn]T[Orn][dV]K-NH2; linker N-9 via Glutaryl) | – | >100 µg/mL | >100 µg/mL | >100 µg/mL | – | >100 µg/mL | >100 µg/mL | >100 µg/mL | >100 µg/mL | >100 µg/mL | >100 µg/mL |
| >512 µg/mL | >512 µg/mL | >512 µg/mL | – | CC(C)[C@@H](NC(=O)[C@H](CCCN)NC(=O)[C@@H](NC(=O)[C@H](CCCN)NC(=O)[C@H](Cc1c[nH]c2ccccc12)NC(=O)[C@@H](C)NC(=O)[C@H](NC(=O)[C@@H](C)N)C(C)C)[C@@H](C)O)C(N)=O [L2-K] (H-[dA][dV][dA]W[Orn]T[Orn][dV]-NH2) | – | – | – | – | – | – | – | – | – | – | – |
| >512 µg/mL | >512 µg/mL | >512 µg/mL | – | CC(C)[C@@H](NC(=O)[C@@H](C)N)C(=O)N[C@H](C)C(=O)N[C@@H](Cc1c[nH]c2ccccc12)C(=O)N[C@H](CC(=O)O)C(=O)N[C@H](C(=O)N[C@H](CC(=O)O)C(=O)N[C@@H](C(=O)N[C@@H](CCCCN)C(N)=O)C(C)C)[C@@H](C)O [L1] (H-[dA][dV][dA]W[dD]T[dD][dV]K-NH2) | – | – | – | – | – | – | – | – | – | – | – |
